Experiments:
[1] = Acute toxicity in mice; details: in vivo, male mouse, dihydrochloride
Procedure: (§1) The acute toxicity of the N-(2-guanidinoethyl)-5-isoquinolinesulfonamide dihydrochloride was measured by giving male ddY-strain mouse and rat an intravenous administration and an oral administration.
The acute toxicity of the hydrochloric acid salt of other compounds was measured by giving male ddY-strain mice an intravenous administration.

[2] = Acute toxicity in rats; details: in vivo, male rat, dihydrochloride
Procedure: as §1

SMILES: Cl.Cl.N=C(N)NCCNS(=O)(=O)c1cccc2cnccc12 [N-(2-guanidinoethyl)-5-isoquinolinesulfonamide dihydrochloride]
- LD50 ([1]; intravenous administration): 59 mg/kg
- LD50 ([1]; oral administration): 1480 mg/kg
- LD50 ([2]; intravenous administration): 64 mg/kg
- LD50 ([2]; oral administration): 1160 mg/kg

Source: patent US4709032A, “Isoquinolinesulfonamide derivatives” (Asahi Kasei Kogyo Kabushiki Kaisha, priority 1982, dated 1987)
